The target of this assay is Recombinant GMPPNP-loaded KRAS G12C (KRAS-G12C(ON), active form) (Homo sapiens, UniProt P01116, G12C). Briefly: KRAS G12C RAF Disruption Assay (HTRF). In kind it is biochemical. The conditions noted are these: GMPPNP-loaded KRAS G12C 5 nM, GST-RAF1 RBD 9 nM, read-out: KRASG12C RAF Disruption Assay (IC50). As for the experimental part: This is a functional assay that measures activity of compounds against […]., the active form of KRAS G12C. Recombinant GMPPNP-loaded KRAS G12C (5 nM) was treated with compound at room temperature for 20 minutes in assay buffer (50 mM Tris pH 7.5, 100 mM NaCl, 1 mM MgCl2, 1 mM DTT, 100 μg/ml BSA). Recombinant GST-RAF1 RBD (9 nM) was added, and the reaction mixture was incubated for 20 minutes. SA-Tb (0.25 nM) was added, and the reaction mixture was incubated for 3 hours. HTRF signal was measured (PerkinElmer Envision), the signal ratio (λem 520/λem 495) was calculated, and IC50 values were calculated from the dose-response curve.
Sequence of Recombinant GMPPNP-loaded KRAS G12C (KRAS-G12C(ON), active form) (P01116 1-188 isoform P01116-2 G12C): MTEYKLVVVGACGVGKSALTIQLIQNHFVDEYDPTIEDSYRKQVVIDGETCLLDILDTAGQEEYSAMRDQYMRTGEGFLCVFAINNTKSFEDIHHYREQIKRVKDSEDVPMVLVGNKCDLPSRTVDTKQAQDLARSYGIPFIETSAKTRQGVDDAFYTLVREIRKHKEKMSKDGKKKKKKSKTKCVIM

Read-outs that look alike come from different tables or passages of the source.

With `Cc1cc(N)nc(-c2c(Cl)cc3c(N4CCC5C(CCN5C(=O)/C(F)=C/c5nccs5)C4)nc(OC[C@]45CCCN4C[C@H](F)C5)nc3c2F)c1C(F)(F)F` (single isomer, unassigned) [Example 26, Isomer 1], for the setting “values given in μM”, the IC50 amounted to 3.37 µM.

In the case of `CN1CCC[C@H]1COc1nc(N2CCN(C(=O)/C(F)=C/c3nccs3)[C@@H](CC#N)C2)c2ccc(-c3cc(Cl)ccc3OC(F)(F)F)c(F)c2n1` [Example 66, 2-((S)-4-(7-(5-chloro-2-(trifluoromethoxy)phenyl)-8-fluoro-2-(((S)-1-methylpyrrolidin-2-yl)methoxy)quinazolin-4-yl)-1-((Z)-2-fluoro-3-(thiazol-2-yl)acryloyl)piperazin-2-yl)acetonitrile], the IC50 (values in nM) was 3.2 µM.

In the case of `CCc1cccc2cccc(-c3ccc4c(N5CCN(C(=O)/C(F)=C/c6ccccn6)[C@@H](CC#N)C5)nc(OC[C@@H]5CCCN5C)nc4c3F)c12` [Example 59, 2-((S)-4-(7-(8-ethylnaphthalen-1-yl)-8-fluoro-2-(((S)-1-methylpyrrolidin-2-yl)methoxy)quinazolin-4-yl)-1-((Z)-2-fluoro-3-(pyridin-2-yl)acryloyl)piperazin-2-yl)acetonitrile], the IC50 (values in nM) was determined as 0.26 µM.

With `N#CC[C@H]1CN(c2nc(OC[C@@]34CCCN3C[C@H](F)C4)nc3c(F)c(-c4cccc5cccc(Cl)c45)ccc23)CCN1C(=O)/C(F)=C/c1nccs1` [Example 75, 2-((S)-4-(7-(8-chloronaphthalen-1-yl)-8-fluoro-2-(((2R,7aS)-2-fluorotetrahydro-1H-pyrrolizin-7a(5H)-yl)methoxy)quinazolin-4-yl)-1-((Z)-2-fluoro-3-(thiazol-2-yl)acryloyl)piperazin-2-yl)acetonitrile], under “values in nM”, the IC50 was found to be 0.06 µM.

Regarding `Cc1cc(N)nc(-c2c(Cl)cc3c(N4CCC(CNC(=O)C(F)=Cc5ccccn5)CC4)nc(OCC4CCCN4C)nc3c2F)c1C(F)(F)F` [Example 44, (2Z)-N-({1-[(7M)-7-[6-amino-4-methyl-3-(trifluoromethyl)pyridin-2-yl]-6-chloro-8-fluoro-2-{[(2S)-1-methylpyrrolidin-2-yl]methoxy}quinazolin-4-yl]piperidin-4-yl}methyl)-2-fluoro-3-(pyridin-2-yl)prop-2-enamide], the IC50 (values in nM) turned out to be 0.35 µM.

With `Cc1cc(N)nc(-c2c(Cl)cc3c(N4CC5CN(C(=O)/C(F)=C/c6nccs6)C5C4)nc(OC[C@]45CCCN4C[C@H](F)C5)nc3c2F)c1C(F)(F)F` (single isomer, unassigned) [Example 15, Isomer 2], the IC50 (values given in μM) was determined as 47.4 µM.

Regarding `Cc1cc(N)nc(-c2c(Cl)cc3c(N4[C@@H]5CC[C@H]4[C@H]4CN(C(=O)/C(F)=C/c6nccs6)C[C@H]45)nc(OC[C@]45CCCN4C[C@H](F)C5)nc3c2F)c1C(F)(F)F` (atropisomer, axis not shown; (aR)) [Example 17, (Z)-1-((3aR,4S,7R,7aS)-8-((7M)-7-(6-amino-4-methyl-3-(trifluoromethyl)pyridin-2-yl)-6-chloro-8-fluoro-2-(((2R,7aR)-2-fluorotetrahydro-1H-pyrrolizin-7a(5H)-yl)methoxy)quinazolin-4-yl)octahydro-2H-4,7-epiminoisoindol-2-yl)-2-fluoro-3-(thiazol-2-yl)prop-2-en-1-one], the half-maximal inhibitory concentration (IC50) (values given in μM) is 5.8 µM.

In the case of `C#Cc1c(F)ccc2cc(O)cc(-c3ccc4c(N5C[C@H]6CC[C@@H](C5)N6C(=O)/C(F)=C/c5nccs5)nc(OC[C@@H]5CCCN5C)nc4c3F)c12` [Example 21, (Z)-1-((1R,5S)-3-(7-(8-ethynyl-7-fluoro-3-hydroxynaphthalen-1-yl)-8-fluoro-2-(((S)-1-methylpyrrolidin-2-yl)methoxy)quinazolin-4-yl)-3,8-diazabicyclo[3.2.1]octan-8-yl)-2-fluoro-3-(thiazol-2-yl)prop-2-en-1-one], the IC50 (values in nM) is 0.4 µM.

Turning to `Cc1cc(N)nc(-c2c(Cl)cc3c(N[C@H]4C[C@@H](NC(=O)/C(F)=C/c5nccs5)C4)nc(OC[C@]45CCCN4C[C@H](F)C5)nc3c2F)c1C(F)(F)F` (atropisomer, axis not shown; (M)) [Example 13, (Z)-N-((1S,3s)-3-(((7M)-7-(6-amino-4-methyl-3-(trifluoromethyl)pyridin-2-yl)-6-chloro-8-fluoro-2-(((2R,7aR)-2-fluorotetrahydro-1H-pyrrolizin-7a(5H)-yl)methoxy)quinazolin-4-yl)amino)cyclobutyl)-2-fluoro-3-(thiazol-2-yl)acrylamide], the IC50 (values given in μM) was 1.1 µM.

Regarding `COc1ccc(Cl)cc1-c1ccc2c(N3CCN(C(=O)/C(F)=C/c4ncccn4)[C@@H](CC#N)C3)nc(OC[C@@H]3CCCN3C)nc2c1F` [Example 63, 2-((S)-4-(7-(5-chloro-2-methoxyphenyl)-8-fluoro-2-(((S)-1-methylpyrrolidin-2-yl)methoxy)quinazolin-4-yl)-1-((Z)-2-fluoro-3-(pyrimidin-2-yl)acryloyl)piperazin-2-yl)acetonitrile], for the setting “values in nM”, the IC50 came to 9.8 µM.

With `Cc1ccc2[nH]ncc2c1-c1ccc2c(N3CCN(C(=O)/C(F)=C/c4ccccn4)[C@@H](CC#N)C3)nc(OC[C@@]34CCCN3C[C@H](F)C4)nc2c1F` [Example 76, 2-((2S)-4-(8-fluoro-2-(((2R,7aS)-2-fluorotetrahydro-1H-pyrrolizin-7a(5H)-yl)methoxy)-7-(5-methyl-1H-indazol-4-yl)quinazolin-4-yl)-1-((Z)-2-fluoro-3-(pyridin-2-yl)acryloyl)piperazin-2-yl)acetonitrile], where the note is “values in nM”, the half-inhibitory concentration (IC50) came to 0.05 µM.

For `COc1ccc(Cl)cc1-c1ccc2c(N3CCN(C(=O)/C(F)=C/c4cnccn4)[C@@H](CC#N)C3)nc(OC[C@@H]3CCCN3C)nc2c1F` [Example 64], the 50% inhibitory concentration (IC50) (values in nM) is 61 µM.

Take `Cc1cc(N)nc(-c2c(Cl)cc3c(N4CCC5(CN(C(=O)/C(F)=C/c6nccs6)C5)C4)nc(OC[C@@]45CCCN4C[C@H](F)C5)nc3c2F)c1C(F)(F)F` (atropisomer, axis not shown; (M)) [Example 9, (Z)-1-(6-((7M)-7-(6-amino-4-methyl-3-(trifluoromethyl)pyridin-2-yl)-6-chloro-8-fluoro-2-(((2R,7aS)-2-fluorotetrahydro-1H-pyrrolizin-7a(5H)-yl)methoxy)quinazolin-4-yl)-2,6-diazaspiro[3.4]octan-2-yl)-2-fluoro-3-(thiazol-2-yl)prop-2-en-1-one]: where the note is “values given in μM”, the IC50 is 1.9 µM.

Consider `Cc1cc2[nH]ncc2c(-c2ccc3c(N(C)[C@@H]4CCN(C(=O)/C(F)=C/c5nccs5)C4)nc(OC[C@@]45CCCN4C[C@H](F)C5)nc3c2F)c1Cl` [Example 84, (Z)-1-((3R)-3-((7-(5-chloro-6-methyl-1H-indazol-4-yl)-8-fluoro-2-(((2R,7aS)-2-fluorotetrahydro-1H-pyrrolizin-7a(5H)-yl)methoxy)quinazolin-4-yl)(methyl)amino)pyrrolidin-1-yl)-2-fluoro-3-(thiazol-2-yl)prop-2-en-1-one], for which the IC50 (values in nM) worked out at 0.098 µM.

As to `C#Cc1c(F)ccc2cc(O)cc(-c3c(Cl)cc4c(N5CC6CCC(C5)N6C(=O)/C(F)=C/c5ccccn5)nc(OC[C@@H]5CCCN5C)nc4c3F)c12` (single isomer, unassigned) [Example 20, Isomer 1], the IC50 (values given in μM) came out at 16.5 µM.

In the case of `CN1CCC[C@H]1COc1nc(N2C[C@H]3CC[C@@H](C2)N3C(=O)/C(F)=C/c2ccccn2)c2ccc(-c3ccc(F)c4sc(N)nc34)c(F)c2n1` [Example 80, (Z)-1-((1R,5S)-3-(7-(2-amino-7-fluorobenzo[d]thiazol-4-yl)-8-fluoro-2-(((S)-1-methylpyrrolidin-2-yl)methoxy)quinazolin-4-yl)-3,8-diazabicyclo[3.2.1]octan-8-yl)-2-fluoro-3-(pyridin-2-yl)prop-2-en-1-one], the IC50 (values in nM) was found to be 0.55 µM.

Take `O=C(/C(F)=C/c1nccs1)N1[C@@H]2CC[C@H]1CN(c1nc(OC[C@@]34CCCN3C[C@H](F)C4)nc3c(F)c(-c4cccc5cccc(Cl)c45)ccc13)C2` [Example 10, (Z)-1-((1R,5S)-3-(7-(8-chloronaphthalen-1-yl)-8-fluoro-2-(((2R,7aS)-2-fluorotetrahydro-1H-pyrrolizin-7a(5H)-yl)methoxy)quinazolin-4-yl)-3,8-diazabicyclo[3.2.1]octan-8-yl)-2-fluoro-3-(thiazol-2-yl)prop-2-en-1-one]: where the note is “values given in μM”, the IC50 amounted to 93 µM.

`Cc1cc(N)nc(-c2c(Cl)cc3c(N4C[C@]5(NC(=O)/C(F)=C/c6nccs6)CC[C@H]4C5)nc(OC[C@@H]4CCCN4C)nc3c2F)c1C(F)(F)F` (atropisomer, axis not shown) [Example 69, (Z)-N-((1S,4S)-2-(7M-(6-amino-4-methyl-3-(trifluoromethyl)pyridin-2-yl)-6-chloro-8-fluoro-2-(((S)-1-methylpyrrolidin-2-yl)methoxy)quinazolin-4-yl)-2-azabicyclo[2.2.1]heptan-4-yl)-2-fluoro-3-(thiazol-2-yl)acrylamide]: the IC50 (values in nM) was 2.6 µM.

Turning to `C[C@H]1CN(C(=O)/C(F)=C/c2ncccn2)CCN1c1nc(OC[C@@H]2CCCN2C)nc2c(F)c(-c3cccc4cccc(Cl)c34)c(Cl)cc12` [Example 2, (Z)-1-((3S)-4-(6-chloro-7-(8-chloronaphthalen-1-yl)-8-fluoro-2-(((S)-1-methylpyrrolidin-2-yl)methoxy)quinazolin-4-yl)-3-methylpiperazin-1-yl)-2-fluoro-3-(pyrimidin-2-yl)prop-2-en-1-one], the IC50 (values given in μM) turned out to be 61.3 µM.

Consider `Cc1cc(N)nc(-c2c(Cl)cc3c(N4CCC5C(CCN5C(=O)/C(F)=C/c5nccs5)C4)nc(OC[C@]45CCCN4C[C@H](F)C5)nc3c2F)c1C(F)(F)F` (single isomer, unassigned) [Example 26, Isomer 2], for which the IC50 (values given in μM) was found to be 55.2 µM.

For the origin of these results see patent publication US20250263424A1, “KRAS INHIBITORS” (Bristol-Myers Squibb Company, priority 2022, published 2025).
